Reference: patent US10512667B2, “Compositions and methods for treating conditions related to adrenocortical activity and/or excessive steroid production” (The Regents of the University of Michigan, priority 2017, dated 2019)
“Also recorded” adds a separate entry of the source.

Columns and labels:
[1] = test system: ACC cell xenografts; conditions: nude mice; cited from earlier work
[2] = test system: H295R cells; assay: Cholesterol efflux into serum-free medium with apoA1; type: cell-based; conditions: serum-free medium containing apoA-I, 4 h
Procedure: Cholesterol efflux was measured by replacing the culture medium with serum-free medium supplemented with 5 μg/ml apoA1 (Sigma) and the indicated compounds. After the indicated time, the serum-free medium was collected, and the cholesterol concentration was measured using the fluorometric enzyme-linked assay (Cayman Chemical).
After 48 h, the medium was removed and replaced with 50 μl serum-free medium supplemented with 5 μg/mL apoA1. After the indicated time, the supernatant containing the effluxed cholesterol, was transferred to a new 96-well plate. A cholesterol detection reagent (Cayman Chemical) consisting of cholesterol assay buffer, cholesterol assay detector (10-acetyl-3,7-dihydroxyphenoxazine [ADHP]), horseradish peroxidase, cholesterol oxidase, and cholesterol esterase was added, and the reactions were incubated for 30 min at 37 C. The fluorescence intensities were measured using ex. […] 590 nm. The cholesterol concentrations were calculated by interpolation between the values produced by cholesterol standards that were analyzed in parallel.

[3] = test system: ACAT; conditions: cited from earlier work
[4] = test system: BD140C cells; assay: Visualization of cholesterol levels by filipin III binding; type: cell-based; conditions: 4 h
How it was run: (§1)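 Cells adhered 48 h, treated with compounds, fixed in 4% paraformaldehyde 20 min, then stained with 100 μg/ml filipin III for 2 h at 37 C in the dark and imaged. Esterification visualized after 2 h culture with 1 μM NBD-cholesterol following compound incubation.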

[5] = test system: H295R cells; assay: as above; type: cell-based; conditions: H295R cells; for cholesterol level / accumulation (filipin III binding), compound alone: serum-containing medium
How it was run: as §1

[6] = test system: H295R cells; assay: Resazurin reducing potential; type: cell-based; conditions: 32 μM ATR-101
Procedure: FIG. 4F: […] The cells were cultured with DMSO vehicle or 32 μM ATR-101 alone, or together with 2 mM MβCD. Resazurin fluorescence intensity was measured using a microplate reader at the indicated times at 37 C. The background signal of wells without resazurin was subtracted. […] DMSO control, *P<0.05).

[7] = test system: ABCG1; assay: Transcript measurement by qPCR in H295R cells; type: cell-based
Procedure: (§2) mRNA was isolated (Qiagen), and was reverse transcribed using the Transcriptor First Strand cDNA synthesis kit (Roche). The relative amounts of cDNAs corresponding to the indicated transcripts were quantified using qPCR assays with specific primers (Table 2).
(§3) H295R cells were seeded in 6-well tissue culture plates (Corning #3506) at a density of 5 X105 per well. After 48 h, the compound(s) indicated were added, and the cells were cultured for the indicated time. The cells were harvested in 1.35 ml culture medium with trypsin. The cells were collected by centrifugation and lysed in 350 μl of RLT buffer (Qiagen) with β-mercaptoethanol. mRNA extraction and DNase treatment were performed according to the manufacturer's protocol (Qiagen). All RNA samples had 260/280 ratios greater than 1.5. The same amount of RNA ranging from 0.1 to 0.5 μg was used for reverse transcription using the Roche Transcriptor First Strand cDNA synthesis kit (Roche #04897030001) using the manufacturer's protocol. SYBR Green I-based real-time qPCR assays were performed using a Roche LightCycler480 instrument. The levels of transcripts in different samples were normalized by the levels of RPL9 transcripts.

[8] = test system: SULT2A1; assay: Transcript measurement by qPCR in H295R cells; type: cell-based; conditions: H295R cells cultured with ATR-101
Procedure: as §2, §3

[9] = test system: ABCA1; assay: Transcript measurement by qPCR in H295R cells; type: cell-based
Procedure: as §2, §3

[10] = test system: CYP17A1; assay: Transcript measurement by qPCR in H295R cells; type: cell-based; conditions: H295R cells cultured with ATR-101
Procedure: as §2, §3

[11] = test system: BD140C cells; assay: Visualization of NBD-cholesterol esterification; type: cell-based; conditions: compound 2 h then 2 h with NBD-cholesterol
Procedure: (§4) The cells were seeded in 96-well ibiTreat μ-Plates and allowed to adhere for 48 h prior to the start of each experiment. Cholesterol was detected in fixed cells by incubating with 100 μg/ml filipin III at 37 C for 2 h. The bound filipin III was imaged by fluorescence microscopy using 377/11 nm excitation and 447/60 nm emission wavelengths. Images were captured using either a 4× or a 60× objective. Cholesterol esterification was visualized by culturing the cells with 1 μM NBD-cholesterol for 2 h following incubation with the indicated compounds. NBD-cholesterol esters were imaged by fluorescence microscopy using 485/20 nm excitation wavelengths. Images were captured using either a 20× or a 60× objective.
(§5) The cells were seeded in 96-well ibiTreat μ-Plates (Ibidi) in 100 μl at a density of 50,000 cells per well. […] 5 μl of NBD-cholesterol was added to each well to produce a final concentration of 1 μM. When NBD-cholesterol is esterified and localized to cytoplasmic lipid droplets, it produces bright fluorescent foci in the cell. The inhibition of ACAT activity prevents fluorescent focus formation by NBD-cholesterol (see, e.g., Lada, et al., 2004 J Lipid Res, 45, 378-86). After 1.5 h, 5 μl of Hoechst 33342 was added to each well to produce a final concentration of 3 μg/ml. After 30 min, the medium was replaced with fresh medium. NBD-cholesterol esterification was visualized by fluorescence microscopy using either 485/20 nm (NBD) or 387/11 nm (Hoechst) excitation wavelengths and images were captured using either a 60× oil objective or a 20× objective.

[12] = test system: H295R cells; assay: Visualization of NBD-cholesterol esterification; type: cell-based; conditions: compound 2 h then 2 h with NBD-cholesterol, hydrochloride
Procedure: as §4, §5

[13] = test system: BD140C cells; assay: Cellular ATP level (CellTiter-Glo); type: cell-based
Procedure: The ATP levels of cells were measured by lysis in CellTiter-Glo reagent (Promega), and measurement of the luminescence.
After 48 h, 20-80 μl of medium was removed from each well and replaced with 20 μl of each compound diluted to 6× of the final concentration in the culture medium to produce a final volume of 120 μl. The cells were incubated at 37 C in 5% CO2 atmosphere for a time ranging from 15 min to 24 h. The medium was removed and immediately replaced with 50 μl of CellTiter-Glo luminescence cell viability assay reagent (Promega). The cells were lysed by agitation at room temperature for 20 min in the dark. The luminescence was measured using a SpectraMax M5 microplate reader (Molecular Devices) with a 0.5 s acquisition time. The luminescence (RLU) values for control cells ranged from 5000 to 20000 RLU in all experiments, and were scaled by a factor of 0.001 to plot all graphs.

[14] = test system: BD140C cells; assay: Caspase 3/7 activity (Apo-ONE); type: cell-based
Procedure: (§6) The samples were incubated for 18 h at room temperature in the dark. The fluorescence was measured using a SpectraMax M5 microplate reader with a 0.5 s acquisition time.

[15] = test system: H295R cells; assay: Caspase 3/7 activity (Apo-ONE); type: cell-based; conditions: H295R cells
Procedure: as §6

CC(C)c1cccc(C(C)C)c1NC(=O)NCC1(c2ccc(N(C)C)cc2)CCCC1.Cl [ATR-101, N-(2,6-bis(1-methylethyl)phenyl)-N′-((1-(4-(dimethylamino)phenyl)cyclopentyl)methyl)urea hydrochloride]
establishment and growth of ACC cell xenografts [1]: inhibits the establishment and impedes the growth
cholesterol efflux, compound alone [2]: inhibited cholesterol efflux
ACAT activity [3]: inhibit ACAT activity
cholesterol level / accumulation (filipin III binding), compound alone [4]: caused cholesterol accumulation in or near the plasma membrane
cholesterol level / accumulation (filipin III binding), compound alone ([5]; 24 h): increase in intracellular cholesterol
cholesterol level / accumulation (filipin III binding), compound alone ([5]; up to 4 h, hydrochloride): caused cholesterol accumulation in or near the plasma membrane; also recorded: increase in cholesterol accumulation in the plasma membrane; also recorded: higher levels of filipin III binding to the plasma membrane
cholesterol level (filipin III binding), compound alone ([5]; serum-free medium containing apoA-I, 4 h, hydrochloride): increased the level of cholesterol in intracellular membranes; also recorded: increased the cholesterol levels; also recorded: higher cholesterol levels
resazurin fluorescence [6]: sustained increase in resazurin fluorescence
ABCG1 transcript level ([7]; 4 h): inhibited
ABCG1 transcript level ([7]; within an hour after addition): reduced
SULT2A1 transcript level [8]: reduced
ABCA1 transcript level ([9]; 4 h): inhibited
ABCA1 transcript level ([9]; within an hour after addition): reduced
CYP17A1 transcript level [10]: reduced
NBD-cholesterol esterification and accumulation in lipid droplets [11]: inhibited NBD-cholesterol esterification
NBD-cholesterol esterification and accumulation in lipid droplets [12]: inhibits NBD-cholesterol esterification; also recorded: eliminated both the intense foci and the diffuse fluorescence
ATP level, compound alone ([13]; 4 h): reduced the ATP level
ATP level, compound alone ([13]; 24 h): reduced the ATP levels
caspase 3/7 activity, compound alone ([14]; 4 h): increased the caspase 3/7 activity
caspase 3/7 activity, compound alone ([14]; 24 h): increased the caspase 3/7 activities
time after ATR-101 addition at which caspase activation was detected ([15]; 100 μM ATR-101): 15 min
caspase 3/7 activity, compound alone ([15]; serum-containing medium, 4 h): increased the caspase 3/7 activity
caspase 3/7 activity, compound alone ([15]; serum-containing medium, 24 h): increased the caspase 3/7 activities
caspase 3/7 activity, compound alone ([15]; serum-free medium, 4 h): caused ATP depletion and caspases activation with the same potency
